Experimental data as given in patent publication US20060286679A1, “Immunochromatographic method” (Mitsubishi Kagaku latron, Inc., priority 2003, published 2006).

Tests used:
[1] = test system: mite-specific IgE; experiment: Enzyme immunochromatographic measurement of specific IgE in hemolyzed whole-blood-derived sample; set-up: species or system human
Method: A nitrocellulose membrane (HF180; pore size=5 to 8 μm; Millipore) was cut into a rectangular piece (5 mm×25 mm). An aqueous solution of extracted mite allergen proteins (1 mg/mL) was applied linearly with a width of 1 mm at the position of 15 mm from an end (upstream) of the membrane. In this connection, the aqueous solution was previously prepared by diluting a Dermatophagoides pteronyssinus extract (Glia) with a 5 mmol/L borate buffer (pH 8.5) and dialyzing the diluted solution.
A plastic adhesive sheet (BioDot) was cut into a rectangular piece (5 mm×60 mm). […] In this connection, adjacent pieces attached on the adhesive sheet were overlapped with each other at a width of approximately 1 mm.
Each aliquot (50 μL) of whole-blood-derived samples prepared by hemolysis and solubilization was dispensed into each well of a microplate. […]
As the above samples, sample 1 (mite-specific IgE=0 IU/mL), sample 2 (mite-specific IgE=3 IU/mL), and sample 3 (mite-specific IgE=10 IU/mL) were used. The amounts of mite-specific IgE were measured by a conventional quantitative analysis (AlaSTAT specific IgE antibody measuring kit; obtained from Iatron and manufactured by DPC, US) and shown by IU/mL, an international standard unit.

[2] = test system: Human whole blood; experiment: Observation on hemolysis after mixing whole blood with equal volume of detergent liquid; format: cell-based; also: key: Hml: Hemolyzed; Not hemolyzed; FCD: Failure in chromatographic development
Method: Deionized water, physiological saline (150 mmol/L sodium chloride liquid), and a 10 mmol/L phosphate buffer (pH 7.5, 150 mmol/L sodium chloride) were prepared.
Human whole blood (100 μL) collected using a tube containing heparin anticoagulant was mixed with an equal volume of each detergent liquid (100 μL) to prepare each sample. After 10 minutes from the mixing, hemolysis in each sample was observed visually. The “hemolysis” was judged on the basis of a transparent state caused by a solubilization of erythrocytic membrane and elution of red pigments such as hemoglobin from erythrocytes.
Total concentrations of five detergents in the four mixed liquids were 0.2, 1.0, 5.0, and 20%, respectively.

[3] = Example 1, detergent liquid 1% (final half), visual, 10 min after mixing
[4] = Example 1, detergent liquid 5% (final half), visual, 10 min after mixing
[5] = Example 1, detergent liquid 20% (final half), visual, 10 min after mixing
[6] = Example 2, detergent liquid 1% (final half)
[7] = Example 2, detergent liquid 5% (final half)
[8] = Example 2, detergent liquid 20% (final half)

Compound: CCCCCCCCCCCCCCCCCC[N+](C)(C)CC(=O)[O-] [Amphitol 86B, stearyl betaine]
- solubilization of whole blood, immunochromatographic staining, and immunochromatographic development [1]: cannot be performed
- Hemolysis [2, 3]: Hml
- Hemolysis [2, 4]: Hml
- Hemolysis [2, 5]: Hml
- Hemolysis [2, 6]: Hml
- Hemolysis [2, 7]: Hml
- Hemolysis [2, 8]: Hml

Compound: C[C@H](CCC(=O)NCCC[N+](C)(C)CCCS(=O)(=O)[O-])[C@H]1CC[C@H]2[C@@H]3[C@H](O)C[C@@H]4C[C@H](O)CC[C@]4(C)[C@H]3C[C@H](O)[C@]12C [CHAPS, 3-[(3-cholamido-propyl)dimethyl-ammonio]propanesulfonic acid]
- Hemolysis [2, 3]: Hml
- Hemolysis [2, 4]: Hml
- Hemolysis [2, 5]: Hml
- Hemolysis [2, 6]: Hml
- Hemolysis [2, 7]: Hml
- Hemolysis [2, 8]: Hml

Compound: CCCCCCCCCCCCOS(=O)(=O)[O-].[Na+] [sodium dodecyl sulfate]
- Hemolysis ([2]; Example 1, detergent liquid 0.2% (final half), visual, 10 min after mixing): Hml
- Hemolysis [2, 3]: Hml
- Hemolysis [2, 4]: Hml
- Hemolysis [2, 5]: Hml
- Hemolysis ([2]; Example 2, detergent liquid 0.2% (final half)): Hml
- Hemolysis [2, 6]: Hml
- Hemolysis [2, 7]: Hml
- Hemolysis [2, 8]: Hml

Compound: polyethylene glycol mono-para-iso-octylphenyl ester [Triton X-100]
- solubilization of whole blood, immunochromatographic staining, and immunochromatographic development [1]: cannot be performed
- Hemolysis [2, 3]: Hml
- Hemolysis [2, 4]: Hml
- Hemolysis [2, 5]: Hml
- Hemolysis [2, 6]: Hml
- Hemolysis [2, 7]: Hml
- Hemolysis [2, 8]: Hml

Compound: polyoxyethylene laurylether [Emulgen 108]
- Hemolysis [2, 3]: Hml
- Hemolysis [2, 4]: Hml
- Hemolysis [2, 5]: Hml
- Hemolysis [2, 6]: Hml
- Hemolysis [2, 7]: Hml
- Hemolysis [2, 8]: Hml

Compound: polyoxyethylene monolaurate [Tween 20]
- Hemolysis [2, 5]: Hml
- Hemolysis [2, 8]: Hml
